We go through 13 compounds from ChEMBL document CHEMBL4118147, “Structure-activity relationship of clovamide and its related compounds for the inhibition of amyloid β aggregation” (Bioorg Med Chem, 2018).

The structures appear in SMILES notation. The source made the active and inactive calls. No cut-off for these calls is given here.

Experiment [1] concerns the target T1, Amyloid-beta precursor protein (Homo sapiens, UniProt P05067). The experiment can be described thus: Inhibition of amyloid beta (1 to 42) (unknown origin) fibril formation at 100 uM after 24 hrs by silicotungstic acid staining based transmission electron microscopic analysis.
For experiment [2], the target named is T1, Amyloid-beta precursor protein. The experiment can be described thus: Inhibition of amyloid beta (1 to 42) (unknown origin) aggregation after 24 hrs by thioflavin T fluorescence assay.
Experiment [3] shares this target. The experiment is described as follows: Inhibition of amyloid beta (1 to 42) (unknown origin) fibril formation after 24 hrs by silicotungstic acid staining based transmission electron microscopic analysis.

T1 sequence (P05067 whole entry): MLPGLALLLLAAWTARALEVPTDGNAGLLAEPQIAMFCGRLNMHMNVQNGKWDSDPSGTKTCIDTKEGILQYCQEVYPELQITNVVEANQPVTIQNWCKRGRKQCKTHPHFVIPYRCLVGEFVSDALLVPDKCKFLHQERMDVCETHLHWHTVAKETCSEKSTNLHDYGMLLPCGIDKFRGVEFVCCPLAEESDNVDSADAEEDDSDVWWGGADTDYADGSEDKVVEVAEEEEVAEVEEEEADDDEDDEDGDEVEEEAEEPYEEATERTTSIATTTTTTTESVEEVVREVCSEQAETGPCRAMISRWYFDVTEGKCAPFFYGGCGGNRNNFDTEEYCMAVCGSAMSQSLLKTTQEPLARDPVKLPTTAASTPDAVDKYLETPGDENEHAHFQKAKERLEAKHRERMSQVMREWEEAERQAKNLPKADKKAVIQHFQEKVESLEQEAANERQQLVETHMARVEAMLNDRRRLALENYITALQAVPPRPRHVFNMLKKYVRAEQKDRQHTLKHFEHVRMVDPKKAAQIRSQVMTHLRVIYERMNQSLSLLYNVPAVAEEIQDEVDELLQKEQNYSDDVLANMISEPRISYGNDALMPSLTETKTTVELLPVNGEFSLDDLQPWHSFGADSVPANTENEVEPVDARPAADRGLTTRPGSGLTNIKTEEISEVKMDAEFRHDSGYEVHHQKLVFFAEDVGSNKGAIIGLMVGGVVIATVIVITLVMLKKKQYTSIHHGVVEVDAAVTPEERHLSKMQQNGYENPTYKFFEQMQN

For `O=C(/C=C/c1ccc(O)cc1)N[C@@H](Cc1ccc(O)c(O)c1)C(=O)O`, the inhibition entry in experiment [1] was “inactive”. The IC50 in experiment [2] was > 100 µM.
For `COC(=O)[C@H](Cc1ccc(OC)c(OC)c1)NC(=O)/C=C/c1ccc(OC)c(OC)c1` the same measures were “inactive” and > 100 µM.
In the case of `COC(=O)[C@H](Cc1ccc(O)c(O)c1)NC(=O)/C=C/c1ccc(O)c(O)c1` [N-CAFFEOYL-DOPA METHYL ESTER], in experiment [2], the 50% inhibitory concentration (IC50) is 4.9 µM and the inhibition result is “Dose-dependent effect”. In addition, the inhibition entry in experiment [3] is “Dose-dependent effect”.
As to `O=C(/C=C/c1ccccc1)N[C@@H](Cc1ccc(O)cc1)C(=O)O`, the inhibition result in experiment [1] is “inactive”. Besides, the IC50 in experiment [2] was > 100 µM.
For `O=C(/C=C/c1ccc(O)cc1)N[C@@H](Cc1ccccc1)C(=O)O` the same measures were “inactive” and > 100 µM.
As to `O=C(/C=C/c1ccc(O)c(O)c1)N[C@@H](Cc1ccccc1)C(=O)O`, in experiment [2], the midpoint of inhibition, the IC50, lay at 72.9 µM and the inhibition entry was “Dose-dependent effect”. In addition, the inhibition result in experiment [3] was “Dose-dependent effect”.
Consider `O=C(/C=C/c1ccc(O)c(O)c1)N[C@@H](Cc1ccc(O)cc1)C(=O)O`, for which, in experiment [2], the IC50 is 87.8 µM and the inhibition result is “Dose-dependent effect”. Moreover, the inhibition entry in experiment [3] is “Dose-dependent effect”.
As to `O=C(/C=C/c1ccccc1)N[C@@H](Cc1ccccc1)C(=O)O`, the inhibition result in experiment [1] is “inactive”. The IC50 in experiment [2] was > 100 µM.
On to `O=C(/C=C/c1ccc(O)c(O)c1)N[C@@H](Cc1ccc(O)c(O)c1)C(=O)O`, for which half-maximal inhibition in experiment [2] (IC50) required 5.7 µM. Also, the inhibition result in experiment [2] and in experiment [3] was “Dose-dependent effect” in each case.
For the compound `O=C(/C=C/c1ccccc1)N[C@@H](Cc1ccc(O)c(O)c1)C(=O)O`, in experiment [2], the IC50 came out at 22.7 µM and the inhibition entry was “Dose-dependent effect”. For the same compound, the inhibition result in experiment [3] is “Dose-dependent effect”.
On to `O=C(/C=C/c1ccc(O)cc1)N[C@@H](Cc1ccc(O)cc1)C(=O)O`, for which, in experiment [1], the inhibition entry was “inactive”. The IC50 in experiment [2] was > 100 µM.
As for `O=C(/C=C/c1ccc(O)c(O)c1)N[C@H](Cc1ccc(O)c(O)c1)C(=O)O`, in experiment [2], the half-maximal inhibitory concentration (IC50) was 1.6 µM and the inhibition entry is “Dose-dependent effect”. Moreover, in experiment [3], the inhibition result is “Dose-dependent effect”.
For `O=C(CCc1ccc(O)c(O)c1)N[C@@H](Cc1ccc(O)c(O)c1)C(=O)O`, in experiment [2], the IC50 turned out to be 8.7 µM and the inhibition result is “Dose-dependent effect”. Moreover, the inhibition result in experiment [3] is “Dose-dependent effect”.

For orientation: IC50 means the point on the concentration scale where inhibition reaches its midpoint. A lower IC50 goes with greater potency in that assay.
